ChEMBL document CHEMBL4387741, “Optimization of novel reversible Bruton's tyrosine kinase inhibitors identified using Tethering-fragment-based screens” (Bioorg Med Chem, 2019)

Columns and labels:
[1] = molecular target: RAC-alpha serine/threonine-protein kinase (Homo sapiens) (UniProt P31749); assay: Inhibition of wild-type human partial length AKT1 expressed in bacterial expression system at 1 uM by Kinomescan method relative to control
[2] = molecular target: Protein-tyrosine kinase 6 (Homo sapiens) (UniProt Q13882); assay: Inhibition of wild-type human partial length BRK (L166 to T451 residues) expressed in bacterial expression system at 1 uM by Kinomescan method relative to control
[3] = molecular target: Calcium/calmodulin-dependent protein kinase type 1B (Homo sapiens) (UniProt Q6P2M8); assay: Inhibition of wild-type human partial length CAMK1B (W9 to A311 residues) expressed in mammalian expression system at 1 uM by Kinomescan method relative to control
[4] = molecular target: Cyclin-dependent kinase-like 1 (Homo sapiens) (UniProt Q00532); assay: Inhibition of wild-type human full length CDKL1 (M1 to I358 residues) expressed in mammalian expression system at 1 uM by Kinomescan method relative to control
[5] = molecular target: Discoidin domain-containing receptor 2 (Homo sapiens) (UniProt Q16832); assay: Inhibition of wild-type human partial length DDR2 (V555 to E855 residues) expressed in mammalian expression system at 1 uM by Kinomescan method relative to control
[6] = molecular target: Serine/threonine-protein kinase 17A (Homo sapiens) (UniProt Q9UEE5); assay: Inhibition of wild-type human partial length DRAK1 (R32 to E363 residues) expressed in bacterial expression system at 1 uM by Kinomescan method relative to control
[7] = molecular target: Ephrin type-B receptor 2 (Homo sapiens) (UniProt P29323); assay: Inhibition of wild-type human partial length EPHB2 (I597 to L902 residues) expressed in bacterial expression system at 1 uM by Kinomescan method relative to control
Chain of Ephrin type-B receptor 2 (Homo sapiens) (P29323 whole entry, the tested form may be a part): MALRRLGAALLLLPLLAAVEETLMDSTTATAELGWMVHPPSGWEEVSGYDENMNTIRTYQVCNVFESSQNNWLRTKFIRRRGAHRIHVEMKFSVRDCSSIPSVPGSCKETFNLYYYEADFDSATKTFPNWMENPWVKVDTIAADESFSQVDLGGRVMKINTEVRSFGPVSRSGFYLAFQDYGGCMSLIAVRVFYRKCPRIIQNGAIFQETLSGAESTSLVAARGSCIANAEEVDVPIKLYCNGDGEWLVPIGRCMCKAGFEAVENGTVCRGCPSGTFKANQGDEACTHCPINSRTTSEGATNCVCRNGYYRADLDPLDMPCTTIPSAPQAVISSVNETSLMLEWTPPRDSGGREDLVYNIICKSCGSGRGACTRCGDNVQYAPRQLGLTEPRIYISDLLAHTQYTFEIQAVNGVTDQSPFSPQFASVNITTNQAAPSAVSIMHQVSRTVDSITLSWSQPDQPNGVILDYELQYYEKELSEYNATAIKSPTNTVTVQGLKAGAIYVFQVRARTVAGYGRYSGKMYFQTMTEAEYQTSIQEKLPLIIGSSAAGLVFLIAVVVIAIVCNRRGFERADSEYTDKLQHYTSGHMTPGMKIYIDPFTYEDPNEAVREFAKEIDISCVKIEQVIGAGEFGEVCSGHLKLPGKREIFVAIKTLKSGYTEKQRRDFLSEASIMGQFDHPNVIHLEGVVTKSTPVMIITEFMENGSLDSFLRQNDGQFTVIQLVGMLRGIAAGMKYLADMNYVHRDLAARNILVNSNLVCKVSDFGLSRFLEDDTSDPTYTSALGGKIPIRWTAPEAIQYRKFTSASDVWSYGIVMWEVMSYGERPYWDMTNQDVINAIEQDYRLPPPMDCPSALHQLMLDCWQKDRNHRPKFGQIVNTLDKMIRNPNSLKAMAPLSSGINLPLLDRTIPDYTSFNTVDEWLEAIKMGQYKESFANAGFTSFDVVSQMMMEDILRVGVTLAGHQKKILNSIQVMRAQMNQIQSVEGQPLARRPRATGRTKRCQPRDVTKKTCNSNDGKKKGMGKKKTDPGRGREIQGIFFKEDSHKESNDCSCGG

[8] = molecular target: Mitogen-activated protein kinase 6 (Homo sapiens) (UniProt Q16659); assay: Inhibition of wild-type human partial length ERK3 (M1 to P413 residues) expressed in bacterial expression system at 1 uM by Kinomescan method relative to control
Chain of Mitogen-activated protein kinase 6 (Homo sapiens) (Q16659 whole entry, the tested form may be a part): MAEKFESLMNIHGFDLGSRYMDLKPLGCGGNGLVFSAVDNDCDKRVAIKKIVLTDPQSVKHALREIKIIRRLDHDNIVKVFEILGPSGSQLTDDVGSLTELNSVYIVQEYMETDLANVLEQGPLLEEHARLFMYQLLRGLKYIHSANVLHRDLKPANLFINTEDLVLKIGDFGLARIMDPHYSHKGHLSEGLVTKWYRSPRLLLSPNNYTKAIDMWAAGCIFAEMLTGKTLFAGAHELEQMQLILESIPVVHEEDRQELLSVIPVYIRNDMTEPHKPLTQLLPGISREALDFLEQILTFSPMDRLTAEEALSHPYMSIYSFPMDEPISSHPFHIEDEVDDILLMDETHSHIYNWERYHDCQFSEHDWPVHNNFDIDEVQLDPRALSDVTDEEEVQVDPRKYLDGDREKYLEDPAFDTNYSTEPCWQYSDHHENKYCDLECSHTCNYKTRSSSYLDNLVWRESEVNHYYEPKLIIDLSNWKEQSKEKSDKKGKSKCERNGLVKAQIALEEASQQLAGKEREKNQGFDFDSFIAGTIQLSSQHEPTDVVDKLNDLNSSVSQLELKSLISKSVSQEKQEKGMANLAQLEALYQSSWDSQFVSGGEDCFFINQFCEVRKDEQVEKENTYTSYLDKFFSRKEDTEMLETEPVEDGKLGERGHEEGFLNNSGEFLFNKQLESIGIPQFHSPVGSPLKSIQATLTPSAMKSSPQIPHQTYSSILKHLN

[9] = test system: Fibroblast growth factor receptor 3 (Homo sapiens), P22607 [G697C]; assay: Inhibition of human partial length FGFR3 G697C mutant (R442 to S771 residues) expressed in bacterial expression system at 1 uM by Kinomescan method relative to control
[10] = test system: Receptor-type tyrosine-protein kinase FLT3 (Homo sapiens), P36888 [K663Q]; assay: Inhibition of human partial length FLT3 K663Q mutant (V592 to Y969 residues) expressed in bacterial expression system at 1 uM by Kinomescan method relative to control
[11] = molecular target: Mitogen-activated protein kinase kinase kinase 13 (Homo sapiens) (UniProt O43283); assay: Inhibition of wild-type human full length LZK (M1 to W966 residues) expressed in mammalian expression system at 1 uM by Kinomescan method relative to control
Chain of Mitogen-activated protein kinase kinase kinase 13 (Homo sapiens) (O43283 whole entry, the tested form may be a part, canonical isoform): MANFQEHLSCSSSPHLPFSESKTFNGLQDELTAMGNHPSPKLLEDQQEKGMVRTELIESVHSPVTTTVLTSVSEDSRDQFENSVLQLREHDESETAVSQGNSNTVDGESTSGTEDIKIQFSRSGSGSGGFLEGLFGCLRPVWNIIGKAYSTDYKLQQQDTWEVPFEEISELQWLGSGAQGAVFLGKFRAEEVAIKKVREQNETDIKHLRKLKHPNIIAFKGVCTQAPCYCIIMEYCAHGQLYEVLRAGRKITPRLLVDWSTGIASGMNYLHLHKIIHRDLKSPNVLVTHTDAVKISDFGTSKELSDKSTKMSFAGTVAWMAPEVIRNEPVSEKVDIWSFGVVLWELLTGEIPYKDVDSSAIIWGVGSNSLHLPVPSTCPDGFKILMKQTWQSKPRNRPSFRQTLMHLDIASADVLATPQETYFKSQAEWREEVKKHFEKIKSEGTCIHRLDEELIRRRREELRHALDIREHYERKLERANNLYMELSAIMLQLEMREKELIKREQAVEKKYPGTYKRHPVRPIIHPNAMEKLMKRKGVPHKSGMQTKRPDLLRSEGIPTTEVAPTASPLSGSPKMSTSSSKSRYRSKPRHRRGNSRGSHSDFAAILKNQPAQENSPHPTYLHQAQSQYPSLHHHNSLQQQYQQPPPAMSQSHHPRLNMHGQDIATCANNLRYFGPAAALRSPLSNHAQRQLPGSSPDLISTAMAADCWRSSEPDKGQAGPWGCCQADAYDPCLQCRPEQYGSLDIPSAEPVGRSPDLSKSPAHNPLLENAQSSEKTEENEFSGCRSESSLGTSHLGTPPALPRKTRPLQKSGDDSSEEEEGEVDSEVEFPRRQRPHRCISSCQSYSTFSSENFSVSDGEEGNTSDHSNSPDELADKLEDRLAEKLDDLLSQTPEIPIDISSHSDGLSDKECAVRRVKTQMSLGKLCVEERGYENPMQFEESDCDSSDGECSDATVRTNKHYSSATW

[12] = test system: Phosphatidylinositol 4,5-bisphosphate 3-kinase catalytic subunit alpha isoform (Homo sapiens), P42336 [E542K]; assay: Inhibition of human partial length PIK3CA E542K mutant (R108 to N1068 residues) expressed in mammalian expression system at 1 uM by Kinomescan method relative to control
[13] = molecular target: Phosphatidylinositol 4,5-bisphosphate 3-kinase catalytic subunit delta isoform (Homo sapiens) (UniProt O00329); assay: Inhibition of wild-type human partial length PIK3CD (R108 to Q1044 residues) expressed in mammalian expression system at 1 uM by Kinomescan method relative to control
[14] = Protein binding in human plasma assessed as unbound fraction at 2 uM by rapid equilibrium dialysis method; assay type: ADME, cell-free
[15] = Terminal half-life in Sprague-Dawley rat at 1 mg/kg, iv; assay type: ADME, organism-based; conditions: in vivo, read-out: beta t1/2 (converted)
[16] = molecular target: Tyrosine-protein kinase Blk (Homo sapiens) (UniProt P51451); assay: Inhibition of wild-type human partial length BLK (G211 to L503 residues) expressed in bacterial expression system at 10 uM by Kinomescan method relative to control
[17] = molecular target: Cyclin-dependent kinase 3 (Homo sapiens) (UniProt Q00526); assay: Inhibition of wild-type human full length CDK3 (M1 to H305 residues) expressed in bacterial expression system at 10 uM by Kinomescan method relative to control
Chain of Cyclin-dependent kinase 3 (Homo sapiens) (Q00526 whole entry, looked up, the tested form may be a part): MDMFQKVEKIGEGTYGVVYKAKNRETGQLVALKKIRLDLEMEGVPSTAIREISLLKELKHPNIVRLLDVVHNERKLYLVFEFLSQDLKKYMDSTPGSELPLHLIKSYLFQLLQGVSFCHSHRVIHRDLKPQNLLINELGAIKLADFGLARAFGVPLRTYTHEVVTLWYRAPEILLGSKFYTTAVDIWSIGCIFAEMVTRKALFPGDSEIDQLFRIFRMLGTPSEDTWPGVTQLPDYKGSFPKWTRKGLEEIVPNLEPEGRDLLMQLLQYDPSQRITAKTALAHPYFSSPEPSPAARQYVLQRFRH

[18] = molecular target: Tyrosine-protein kinase CSK (Homo sapiens) (UniProt P41240); assay: Inhibition of wild-type human full length CSK (M1 to L450 residues) expressed in bacterial expression system at 10 uM by Kinomescan method relative to control
Chain of Tyrosine-protein kinase CSK (Homo sapiens) (P41240 2-450 limits assumed): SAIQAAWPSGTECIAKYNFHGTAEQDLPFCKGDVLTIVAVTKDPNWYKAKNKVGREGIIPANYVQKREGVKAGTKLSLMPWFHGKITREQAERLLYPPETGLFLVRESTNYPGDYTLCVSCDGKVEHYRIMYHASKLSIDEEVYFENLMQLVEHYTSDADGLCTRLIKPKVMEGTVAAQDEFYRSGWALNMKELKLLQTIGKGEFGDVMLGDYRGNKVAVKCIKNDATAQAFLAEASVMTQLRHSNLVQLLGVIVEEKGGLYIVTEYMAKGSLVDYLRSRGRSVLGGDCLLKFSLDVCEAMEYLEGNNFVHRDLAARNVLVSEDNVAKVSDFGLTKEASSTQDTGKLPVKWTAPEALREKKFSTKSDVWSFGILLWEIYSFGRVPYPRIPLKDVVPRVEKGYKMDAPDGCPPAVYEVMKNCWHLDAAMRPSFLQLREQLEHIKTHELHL

[19] = molecular target: Serine/threonine-protein kinase DCLK2 (Homo sapiens) (UniProt Q8N568); assay: Inhibition of wild-type human partial length DCAMKL2 (K273 to V664 residues) expressed in bacterial expression system at 10 uM by Kinomescan method relative to control
[20] = test system: Receptor-type tyrosine-protein kinase FLT3 (Homo sapiens), P36888 [D835Y]; assay: Inhibition of human partial length FLT3 D835Y mutant (Q580 to Y969 residues) expressed in bacterial expression system at 10 uM by Kinomescan method relative to control
[21] = molecular target: Mitogen-activated protein kinase kinase kinase kinase 1 (Homo sapiens) (UniProt Q92918); assay: Inhibition of wild-type human full length HPK1 (M1 to R799 residues) expressed in bacterial expression system at 10 uM by Kinomescan method relative to control
[22] = molecular target: MAP kinase-activated protein kinase 5 (Homo sapiens) (UniProt Q8IW41); assay: Inhibition of wild-type human partial length MAPKAPK5 (M1 to D322 residues) expressed in mammalian expression system at 10 uM by Kinomescan method relative to control
[23] = molecular target: Microtubule-associated serine/threonine-protein kinase 1 (Homo sapiens) (UniProt Q9Y2H9); assay: Inhibition of wild-type human partial length MAST1 (S346 to V730 residues) expressed in mammalian expression system at 10 uM by Kinomescan method relative to control
[24] = molecular target: Ribosomal protein S6 kinase alpha-4 (Homo sapiens) (UniProt O75676); assay: Inhibition of wild-type human partial length C-terminal RPS6KA4 kinase domain 2 (M375 to T705 residues) expressed in mammalian expression system at 10 uM by Kinomescan method relative to control
Chain of Ribosomal protein S6 kinase alpha-4 (Homo sapiens) (O75676 whole entry, looked up, the tested form may be a part): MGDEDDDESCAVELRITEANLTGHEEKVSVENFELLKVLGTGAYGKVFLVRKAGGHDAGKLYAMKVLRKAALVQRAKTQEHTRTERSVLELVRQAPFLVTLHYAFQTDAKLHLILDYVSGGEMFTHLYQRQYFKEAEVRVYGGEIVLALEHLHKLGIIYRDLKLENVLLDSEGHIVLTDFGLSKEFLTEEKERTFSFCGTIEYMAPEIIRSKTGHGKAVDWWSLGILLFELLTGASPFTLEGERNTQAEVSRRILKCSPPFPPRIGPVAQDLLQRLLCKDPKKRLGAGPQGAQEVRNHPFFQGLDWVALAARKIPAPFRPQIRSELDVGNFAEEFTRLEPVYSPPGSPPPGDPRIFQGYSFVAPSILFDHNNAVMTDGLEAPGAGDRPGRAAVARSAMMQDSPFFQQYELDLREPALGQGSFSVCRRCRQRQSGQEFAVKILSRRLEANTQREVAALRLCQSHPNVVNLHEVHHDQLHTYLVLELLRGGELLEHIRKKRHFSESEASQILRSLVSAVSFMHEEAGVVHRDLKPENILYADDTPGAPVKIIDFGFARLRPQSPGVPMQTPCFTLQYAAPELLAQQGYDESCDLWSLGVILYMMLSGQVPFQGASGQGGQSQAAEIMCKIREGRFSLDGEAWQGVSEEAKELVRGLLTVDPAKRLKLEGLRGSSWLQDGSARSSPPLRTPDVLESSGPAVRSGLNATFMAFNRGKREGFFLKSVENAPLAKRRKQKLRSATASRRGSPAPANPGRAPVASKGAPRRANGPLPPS

[25] = molecular target: Proto-oncogene tyrosine-protein kinase Src (Homo sapiens) (UniProt P12931); assay: Inhibition of wild-type human partial length SRC (L240 to L536 residues) expressed in bacterial expression system at 10 uM by Kinomescan method relative to control
[26] = molecular target: Serine/threonine-protein kinase 35 (Homo sapiens) (UniProt Q8TDR2); assay: Inhibition of wild-type human partial length STK35 (G182 to A534 residues) expressed in bacterial expression system at 10 uM by Kinomescan method relative to control
[27] = molecular target: BDNF/NT-3 growth factors receptor (Homo sapiens) (UniProt Q16620); assay: Inhibition of wild-type human partial length TRKB (Q547 to G838 residues) expressed in mammalian expression system at 10 uM by Kinomescan method relative to control
Chain of BDNF/NT-3 growth factors receptor (Homo sapiens) (Q16620 32-822 limits assumed): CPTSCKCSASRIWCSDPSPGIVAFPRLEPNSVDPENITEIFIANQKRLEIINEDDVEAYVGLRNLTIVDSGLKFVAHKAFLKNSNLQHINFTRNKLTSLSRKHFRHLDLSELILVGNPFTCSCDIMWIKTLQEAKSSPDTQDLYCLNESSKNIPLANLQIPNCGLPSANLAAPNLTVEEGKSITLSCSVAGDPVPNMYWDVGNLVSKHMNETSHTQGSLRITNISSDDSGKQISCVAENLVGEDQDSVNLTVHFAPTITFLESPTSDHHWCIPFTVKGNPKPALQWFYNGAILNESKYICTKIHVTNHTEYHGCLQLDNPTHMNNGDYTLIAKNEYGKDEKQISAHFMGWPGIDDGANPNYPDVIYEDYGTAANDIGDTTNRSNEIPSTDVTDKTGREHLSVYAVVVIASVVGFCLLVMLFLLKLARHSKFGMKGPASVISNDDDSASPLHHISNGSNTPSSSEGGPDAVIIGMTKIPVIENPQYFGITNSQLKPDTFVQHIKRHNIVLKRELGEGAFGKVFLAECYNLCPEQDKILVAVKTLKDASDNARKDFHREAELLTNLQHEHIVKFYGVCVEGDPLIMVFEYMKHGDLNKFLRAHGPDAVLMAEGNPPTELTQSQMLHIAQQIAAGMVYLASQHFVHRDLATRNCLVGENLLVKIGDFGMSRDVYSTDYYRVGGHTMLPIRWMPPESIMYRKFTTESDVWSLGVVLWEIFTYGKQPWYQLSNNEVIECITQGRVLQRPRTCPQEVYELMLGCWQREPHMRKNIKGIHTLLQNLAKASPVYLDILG

[28] = molecular target: Testis-specific serine/threonine-protein kinase 1 (Homo sapiens) (UniProt Q9BXA7); assay: Inhibition of wild-type human full length TSSK1B (M1 to Q367 residues) expressed in bacterial expression system at 10 uM by Kinomescan method relative to control

O=C(Nc1cccc([C@@H]2CN(c3ncnc4[nH]ccc34)CCN2CCO)c1)Nc1c(F)cccc1N1CCCC1
inhibition [1]: 100%
inhibition [2]: 99%
inhibition [3]: 98%
inhibition [4]: 73%
inhibition [5]: 73%
inhibition [6]: 82%
inhibition [7]: 85%
inhibition [8]: 100%
inhibition [9]: 100%
inhibition [10]: 42%
inhibition [11]: 100%
inhibition [12]: 79%
inhibition [13]: 100%
Fu [14]: 1%
half-life [15]: 2.5 h

O=C(Nc1cccc([C@H]2CCCN(c3ncnc4[nH]ccc34)C2)c1)Nc1ccccc1N1CCCC1
inhibition [16]: 43%
inhibition [17]: 86%
inhibition [18]: 83%
inhibition [19]: 83%
inhibition [20]: 1.9%
inhibition [21]: 100%
inhibition [22]: 100%
inhibition [23]: 69%
inhibition [24]: 44%
inhibition [25]: 80%
inhibition [26]: 99%
inhibition [27]: 69%
inhibition [28]: 100%
